The target in test [1] is T1, recombinant human endothelin converting enzyme-1 (rhECE-1) (Homo sapiens, UniProt P42892).
T1 construct: made in house; host or cells: Chinese hamster ovary (CHO) cells; 100,000 x g membrane pellet of the homogenate
T1 sequence (P42892 1-770): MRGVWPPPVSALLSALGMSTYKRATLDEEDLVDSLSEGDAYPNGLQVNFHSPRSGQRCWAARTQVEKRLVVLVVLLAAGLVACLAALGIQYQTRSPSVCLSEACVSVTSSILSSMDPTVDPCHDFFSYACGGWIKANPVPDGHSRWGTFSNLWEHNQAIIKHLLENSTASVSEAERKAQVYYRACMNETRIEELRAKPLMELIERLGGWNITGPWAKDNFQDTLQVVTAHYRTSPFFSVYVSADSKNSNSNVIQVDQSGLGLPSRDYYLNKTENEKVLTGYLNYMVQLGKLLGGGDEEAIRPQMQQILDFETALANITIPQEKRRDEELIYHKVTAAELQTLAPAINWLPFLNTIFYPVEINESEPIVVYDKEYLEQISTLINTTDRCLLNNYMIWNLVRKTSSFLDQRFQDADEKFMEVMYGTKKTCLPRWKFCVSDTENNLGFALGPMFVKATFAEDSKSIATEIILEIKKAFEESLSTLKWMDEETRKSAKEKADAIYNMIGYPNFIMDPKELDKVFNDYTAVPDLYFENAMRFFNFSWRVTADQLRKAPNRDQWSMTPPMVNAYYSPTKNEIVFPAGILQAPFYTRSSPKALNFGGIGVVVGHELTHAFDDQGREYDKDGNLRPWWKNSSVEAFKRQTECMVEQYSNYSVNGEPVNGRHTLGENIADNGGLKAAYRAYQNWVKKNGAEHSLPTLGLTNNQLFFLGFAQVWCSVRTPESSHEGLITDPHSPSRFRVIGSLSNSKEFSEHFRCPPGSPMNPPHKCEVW
Put plainly: in vitro assay for rh-ECE-1 inhibition (radioimmunoassay of ET-1 formed from big ET-1). In kind it is biochemical. As to conditions: membrane preparation from CHO cells, human big ET-1 0.2 µM, 2 h at 37 °C.
Procedure: Cells are harvested by scraping, pelleted by centrifugation, and homogenized at 4 °C in a buffer containing 5 mM MgCl2., 1 µM pepstatin A, 100 µM leupeptin, 1 mM PMSF, and 20 mM Tris, pH 7.0, with a ratio of 2 mL of buffer/mL of cells. The cell debris is removed by brief centrifugation, and the supernatant is centrifuged again at 100,000 x g for 30 minutes. The resulting pellet is resuspended in a buffer containing 200 mM NaCl and 50 mM Tes, pH 7.0, at a protein concentration about 15 mg/mL and stored in aliquots at -80°C.
To assess the effect of an inhibitor on ECE-1 activity, 10 µg of protein is preincubated with the compound at a desired concentration for 20 min at room temperature in 50 mM TES, pH 7.0, and 0.005% Triton X-100 in a volume of 10 µL. […]
Diluted samples (200 µL) obtained from the above enzyme assay are incubated at 4° C overnight with 25 µL each of [^125I]ET-1 (10,000 cpm/tube) and 1:20,000-fold diluted rabbit antibodies that recognize specifically the carboxyl terminal tryptophan of ET-1. […] The supernatant is decanted, and the radioactivity in the pellet is counted in a gamma counter. Total and nonspecific binding are measured in the absence of nonradioactive ET-1 and anti-ET antibodies, respectively.
In order to determine the IC50 value of an inhibitor, a concentration-response curve of each inhibitor is determined. […]

For test [2], the target named is rabbit antibodies that recognize specifically the carboxyl terminal tryptophan of ET-1. Format: binding. As to conditions: mean ± SEM, n = 3 - 5; 4° C overnight.
Procedure: Diluted samples (200 µL) obtained from the above enzyme assay are incubated at 4° C overnight with 25 µL each of [^125I]ET-1 (10,000 cpm/tube) and 1:20,000-fold diluted rabbit antibodies that recognize specifically the carboxyl terminal tryptophan of ET-1. Goat anti-rabbit antibodies coupled to magnetic beads (70 µg) are then added to each tube, and the reaction mixture is further incubated for 30 min at room temperature. The beads are pelleted using a magnetic rack. The supernatant is decanted, and the radioactivity in the pellet is counted in a gamma counter. Total and nonspecific binding are measured in the absence of nonradioactive ET-1 and anti-ET antibodies, respectively.

Experimental findings from patent EP1080104B1, “CERTAIN HETEROARYL SUBSTITUTED THIOL INHIBITORS OF ENDOTHELIN-CONVERTING ENZYME” (Novartis AG, priority 1998, dated 2005) are described below.

Bridges are numbered along the chain shown (N, C = ends). Where no end group is shown, it is not given here.

Consider `CC(C)C[C@H](S)C(=O)NC1(C(=O)N[C@@H](Cc2ccc(-c3cccs3)nc2)C(=O)O)CCCC1` [Example 2(s), 2-{[1-(2-Mercapto-4-methyl-pentanoylamino)-cyclopentanecarbonyl]-amino}-3-[6-(thien-2-yl)-pyridin-3-yl]-propionic acid], for which the IC50 in test [1] is about 4 nM.

As to “big ET-1: Human big ET-1, substrate of the ECE-1 assay (CSCSSLMDKECVYFCHLDIIWVNTPEHVVPYGLGSPRS; disulfide 1-15, 3-11; ends not checked; UniProt P05305 53-90, looked up)”, the “IC50 values (displace [125I]ET-1 binding to the antibodies)” value in test [2] is listed as 260,000 ± 66,000 fmol.

In general, IC50 refers to the concentration at which inhibition is half-maximal.
